Data from US20200038478A1, “POLYPEPTIDE AND COMPOSITION THEREOF FOR TREATING DISEASES OF METABOLIC SYSTEM” (WUHAN GRECTECH CO., LTD., priority 2017, published 2020).
Bridge positions count the residues as written; N and C are the ends. Ends that are not written are not given here.

How the values were obtained:
normal mice [1] = experiment: Polypeptide vs insulin on normal mice after tail vein injection (Example 10); assay type: in vivo, Kunming white mice; conditions: single tail vein injection, polypeptide 2 mg/mL at 0.05 ml/10 g (10 mg/kg), insulin 0.5 U/mL (2.5 U/kg)
[2] = tested on: mouse models of type 2 diabetes; experiment: Polypeptide mixture vs insulin, mouse models of type 2 diabetes, subcutaneous injection (Example 14); conditions: KK mice, single subcutaneous injection on the back, polypeptide 2 mg/mL, insulin 0.5 U/mL, each 0.05 ml/10 g
[3] = tested on: mouse models of type 2 diabetes; experiment: Polypeptide mixture vs insulin, mouse models of type 2 diabetes, tail vein injection (Example 13); conditions: KK mice, single tail vein injection, polypeptide 2 mg/mL, insulin 0.5 U/mL, each 0.05 ml/10 g
[4] = tested on: mouse models of type 2 diabetes; experiment: Polypeptide mixture vs insulin, mouse models of type 2 diabetes, intramuscular injection (Example 15); conditions: KK mice, single intramuscular injection in the lateral thigh, polypeptide 2 mg/mL, insulin 0.5 U/mL, each 0.05 ml/10 g
normal mice [5] = experiment: Hypoglycemic effect of the polypeptide on normal mice after tail vein injection (Example 3); assay type: in vivo, Kunming white mice; conditions: for Blood glucose level at 15 min after administration / Blood glucose level at 30 min after administration / Blood glucose level prior to administration: single tail vein injection; for Blood glucose level prior to administration: baseline
normal mice [6] = experiment: Hypoglycemic effect on normal mice after administration by gavage, with or without glucose (Example 11); assay type: in vivo, Kunming white mice; conditions: for Blood glucose level prior to administration: baseline
trypsin = experiment: Stability against trypsin in simulated intestinal fluid, HPLC (Example 16); assay type: in vitro ADME; conditions: pH 6.8, 1 g trypsin per 100 mL, 37° C., 2 hours
Procedure: (§1) Polypeptides were subject to enzymatic hydrolysis in simulated gastric and simulated intestinal fluids, respectively, to verify whether the polypeptides were resistance to the enzymatic hydrolysis of digestive enzymes. Control experiments were performed with albumin.
Preparation of simulated intestinal fluid: 6.8 g of potassium dihydrogen phosphate was dissolved in 500 mL water, 0.4% (w/w) NaOH was added to adjust the pH to 6.8, and water was added to make up 1 L. 1 g trypsin per 100 mL solution was added, and after homogeneously mixing, the solution was filtered through a 0.22 μm sterile filter for use.
(§2) 10 μL of the polypeptide solution (10 mg/mL) was added to the simulated gastric fluid (1 mL) and simulated intestinal fluid (1 mL), respectively, and after homogeneously mixing, the mixtures were incubated in a water bath at 37° C. for 2 hours.
(§3) 1 mg of dried albumin powder was added to the simulated gastric fluid (1 mL) and simulated intestinal fluid (1 mL), respectively, and after homogeneously mixing, the mixtures were incubateed in a water bath at 37° C. for 2 hours.
(§4) The above enzymatic mixtures were detected by using HPLC.
(§5) Chromatographic conditions: mobile phase, water (containing 0.1% TFA)+acetonitrile (containing 0.1% TFA), gradient elution from 15% to 50% acetonitrile for 25 min, flow rate of 1 mL/min, detection wavelength of 214 nm, injection volume of 20 ul.

pepsin = biological target: T1, pepsin (Sus scrofa, UniProt P00791); experiment: Stability against pepsin in simulated gastric fluid, HPLC (Example 16); assay type: in vitro ADME; conditions: pH 1.5, 1 g pepsin per 100 mL, 37° C., 2 hours
T1 construct: purchased Sigma-Aldrich Company Ltd
T1 sequence (P00791 60-385): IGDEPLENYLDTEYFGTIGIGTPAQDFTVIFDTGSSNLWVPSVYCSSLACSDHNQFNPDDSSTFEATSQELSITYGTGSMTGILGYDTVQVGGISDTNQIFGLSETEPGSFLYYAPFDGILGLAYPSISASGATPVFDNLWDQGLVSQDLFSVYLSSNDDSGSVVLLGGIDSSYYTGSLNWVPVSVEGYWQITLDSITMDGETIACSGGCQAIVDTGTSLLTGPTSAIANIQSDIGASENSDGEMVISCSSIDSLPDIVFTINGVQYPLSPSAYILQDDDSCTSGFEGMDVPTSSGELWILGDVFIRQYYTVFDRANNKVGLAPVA
Procedure: as §1
Preparation of simulated gastric fluid: water was added to diluted hydrochloric acid with a concentration of 1 mol/L, to adjust the pH to 1.5. 1 g pepsin per 100 mL solution was added, and after homogeneously mixing, the solution was filtered through a 0.22 μm sterile filter for use.
as §2, §3, §4, §5

normal mice [7] = experiment: Natural extract vs solid-phase synthetic polypeptide, normal mice, subcutaneous injection (Example 7); assay type: in vivo, Kunming white mice; conditions: 1 mg/mL at 0.05 ml/10 g, single subcutaneous injection on the back
[8] = Group A high-dose, 1 mg/mL at 0.10 ml/10 g
[9] = Group B medium-dose, 1 mg/mL at 0.05 ml/10 g
[10] = Group C low-dose, 1 mg/mL at 0.025 ml/10 g
[11] = Group B, 1 mg/mL polypeptide in saline at 0.10 ml/10 g
[12] = Group C polypeptide+glucose, 1 mg/mL polypeptide in 10% glucose solution at 0.10 ml/10 g

Insulin
Blood glucose level at 15 min after administration (normal mice [1]): 5.2 ± 0.4 mmol/L
Blood glucose level at 30 min after administration (normal mice [1]): 3.6 ± 0.3 mmol/L
Blood glucose level at 45 min after administration (normal mice [1]): 2.7 ± 0.4 mmol/L
Blood glucose level at 60 min after administration (normal mice [1]): 2.2 ± 0.2 mmol/L
Blood glucose level prior to administration (normal mice [1]; baseline): 7.7 ± 0.6 mmol/L
Blood glucose level at 15 min after administration [2]: 8.8 ± 0.8 mmol/L
Blood glucose level at 30 min after administration [2]: 7.1 ± 0.7 mmol/L
Blood glucose level at 45 min after administration [2]: 6.4 ± 0.5 mmol/L
Blood glucose level at 60 min after administration [2]: 5.0 ± 0.4 mmol/L
Blood glucose level prior to administration ([2]; baseline): 11.6 ± 1.1 mmol/L
Blood glucose level at 15 min after administration [3]: 8.5 ± 0.7 mmol/L
Blood glucose level at 30 min after administration [3]: 7.5 ± 0.4 mmol/L
Blood glucose level at 45 min after administration [3]: 6.1 ± 0.4 mmol/L
Blood glucose level at 60 min after administration [3]: 4.8 ± 0.3 mmol/L
Blood glucose level prior to administration ([3]; baseline): 14.3 ± 0.9 mmol/L
Blood glucose level at 15 min after administration [4]: 11.1 ± 0.9 mmol/L
Blood glucose level at 30 min after administration [4]: 9.6 ± 0.7 mmol/L
Blood glucose level at 45 min after administration [4]: 7.3 ± 0.8 mmol/L
Blood glucose level at 60 min after administration [4]: 5.2 ± 0.4 mmol/L
Blood glucose level prior to administration ([4]; baseline): 13.4 ± 1.1 mmol/L

ASCNGVCSPFEMPPCGTSACRCIPVGLFIGYCRNPSG (disulfide 15-32, 3-20, 7-22; listed as Pisum sativum) [SEQ ID No. 7]
Blood glucose level at 15 min after administration (normal mice [5]; [8]): 3.3 ± 0.3 mmol/L
Blood glucose level at 30 min after administration (normal mice [5]; [8]): 2.1 ± 0.3 mmol/L
Blood glucose level prior to administration (normal mice [5]; [8]): 7.1 ± 0.5 mmol/L
Blood glucose level at 15 min after administration (normal mice [5]; [9]): 4.3 ± 0.4 mmol/L
Blood glucose level at 30 min after administration (normal mice [5]; [9]): 3.3 ± 0.3 mmol/L
Blood glucose level prior to administration (normal mice [5]; [9]): 7.9 ± 0.6 mmol/L
Blood glucose level at 15 min after administration (normal mice [5]; [10]): 5.7 ± 0.3 mmol/L
Blood glucose level at 30 min after administration (normal mice [5]; [10]): 4.3 ± 0.3 mmol/L
Blood glucose level prior to administration (normal mice [5]; [10]): 6.9 ± 0.5 mmol/L
hypoglycemic activity (conclusion) (normal mice [5]; normal mice, intravenous injection): explicit hypoglycemic activity

ASCNGVCSPFDIPPCGSPLCRCIPVGLVIGKCRNPYG (disulfide 15-32, 3-20, 7-22; listed as Pisum sativum) [SEQ ID No. 10]
Blood glucose level at 15 min after administration (normal mice [6]; [11]): 6.9 ± 0.3 mmol/L
Blood glucose level at 30 min after administration (normal mice [6]; [11]): 6.4 ± 0.2 mmol/L
Blood glucose level at 45 min after administration (normal mice [6]; [11]): 6.1 ± 0.3 mmol/L
Blood glucose level at 60 min after administration (normal mice [6]; [11]): 6.1 ± 0.2 mmol/L
Blood glucose level prior to administration (normal mice [6]; [11]): 6.7 ± 0.6 mmol/L
Blood glucose level at 15 min after administration (normal mice [6]; [12]): 7.1 ± 0.3 mmol/L
Blood glucose level at 30 min after administration (normal mice [6]; [12]): 6.9 ± 0.2 mmol/L
Blood glucose level at 45 min after administration (normal mice [6]; [12]): 6.6 ± 0.3 mmol/L
Blood glucose level at 60 min after administration (normal mice [6]; [12]): 6.2 ± 0.2 mmol/L
Blood glucose level prior to administration (normal mice [6]; [12]): 6.8 ± 0.4 mmol/L

Albumin: Serum albumin (bovine) standard
enzymatic hydrolysis in simulated intestinal fluid (trypsin): completely enzymatically hydrolyzed
enzymatic hydrolysis in simulated gastric fluid (pepsin): completely enzymatically hydrolyzed

ASCNGVCSPFEMPPCGTSACRCIPVGLVVGYCRNPSG [Polypeptide B] (disulfide 15-32, 3-20, 7-22; listed as Pisum sativum)
Blood glucose level at 15 min after administration (normal mice [7]): 5.5 ± 0.3 mmol/L
Blood glucose level at 30 min after administration (normal mice [7]): 4.6 ± 0.2 mmol/L
Blood glucose level at 45 min after administration (normal mice [7]): 3.3 ± 0.2 mmol/L
Blood glucose level at 60 min after administration (normal mice [7]): 2.4 ± 0.1 mmol/L
Blood glucose level prior to administration (normal mice [7]; baseline): 7.2 ± 0.6 mmol/L
